Legend:
[1] = Solubility in pure water of the polymorphs; details: 23° C.
Method: The solubility in pure water of samples of the different polymorphs was assessed at 23° C.

[2] = Competitive slurries of polymorphs (XRPD of product); type: physicochemical
Method: Form IV (10 mg) was placed in water (1 ml) with 10 mg of Form I and Form II and stirred overnight at ambient temperature. A second slurry was set up to also include a further polymorph. Mixtures were filtered under suction and dried in a vacuum oven (45° C.).
The same experimental procedure was applied to a slurry involving Forms I, II, III and IV. The initial test was performed in water and a second was carried out in ethyl acetate. […] This work supports previous conclusions that Form II is the dominant form.

## Cc1occc(=O)c1[O-].Cc1occc(=O)c1[O-].Cc1occc(=O)c1[O-].[Fe+3] [Form II, ferric maltol]
[1]
  Solubility: 5900 µg/mL
[2]; Form IV with Form I and Form II, water, stirred overnight at ambient temperature
  Form obtained from competitive slurry (XRPD): generated
[2]; conclusion from competitive slurries
  Relative stability of forms concluded from competitive slurries: dominant form
[2]; slurry of Forms I, II, III and IV, in water and in ethyl acetate
  Form obtained from competitive slurry (XRPD): isolated
